Reference: patent EP4703354A1, “COMPOUND AS CCR6 ANTAGONIST, AND PHARMACEUTICAL COMPOSITION AND USE THEREOF” (Wuhan Createrna Science and Technology Co.,Ltd., priority 2023, dated 2024)

How the values were obtained:
human CCR6 = biological target: T1, human CCR6 (Homo sapiens, UniProt P51684); assay: human CCR6 calcium flux activity (FLIPR, HEK293 cells stably expressing human CCR6, CCL20 stimulation); assay type: cell-based; details: HEK293 cells stably expressing human CCR6, EC80 human MIP-3 alpha/CCL20; read-out: CCR6 inhibitory activity, IC50
T1 construct: expressed in transfected cells; host or cells: HEK293
T1 sequence (P51684 1-374): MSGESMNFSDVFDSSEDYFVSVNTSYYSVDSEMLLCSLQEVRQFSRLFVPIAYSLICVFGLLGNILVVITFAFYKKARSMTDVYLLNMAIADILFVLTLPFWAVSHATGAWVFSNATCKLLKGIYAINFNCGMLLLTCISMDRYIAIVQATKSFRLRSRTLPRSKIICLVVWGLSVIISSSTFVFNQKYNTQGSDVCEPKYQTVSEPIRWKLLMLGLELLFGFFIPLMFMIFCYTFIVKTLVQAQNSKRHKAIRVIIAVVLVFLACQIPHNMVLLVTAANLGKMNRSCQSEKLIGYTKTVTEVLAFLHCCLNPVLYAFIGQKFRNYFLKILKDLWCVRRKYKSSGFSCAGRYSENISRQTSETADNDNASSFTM
Procedure: The activity of the compounds was evaluated using HEK293 cells stably expressing human CCR6 via the FLIPR platform. A 384-well black cell culture plate (Greiner, 781946) was used, with a seeding density of 20,000 cells/well, and incubated overnight at 37°C in a 5% CO2 incubator. The culture medium in the cell plate wells was removed, and 20 µL of Fluo-4 Direct™ Calcium Assay Buffer (Invitrogen, F10471, Component C), 20 µL of 2× Fluo-4 Direct™ Calcium Assay Reagent (Invitrogen, F10471, Component A) working solution, and 10 µL of 6× test compound working solution were sequentially added to each well. The cell plate was incubated in a 37 °C, 5% CO2 incubator for 50 min, followed by a 10 min incubation at room temperature. Additionally, a 6×EC80 human MIP-3 alpha/CCL20 (MCE, HY-P7262) working solution was prepared. After the incubation was completed, 10 µL/well of the 6×EC80 human MIP-3 alpha/CCL20 working solution was transferred to the cell plate using a FLIPR instrument, and the fluorescence signal changes at an excitation wavelength of 494 nm and an emission wavelength of 516 nm were recorded over 90 seconds. The difference between the maximum fluorescence signal (RFUMax) and the minimum fluorescence signal (RFUMin) was used as the output signal. The compound inhibition rate and the log value of the compound concentration were calculated, and a four-parameter fitting analysis was performed using GraphPad Prism 8 software to obtain the IC50 value of the test compound.

[1] = in vitro liver microsome metabolic stability, rat; assay type: in vitro ADME; details: Rat liver microsomes, 37°C
Procedure: (§1) Preparation of working solutions for test compounds and standards: An appropriate amount of the compound was accurately weighed and dissolved in a corresponding volume of suitable solvent to prepare 1 mM stock solutions of the test compounds and standards. The stock solutions were then diluted with appropriate solvent to obtain 100 µM working solutions of the test compounds, ensuring that the DMSO content in the working solutions remained below 10%.
(§2) The internal standard compound testosterone (or tolbutamide) and its corresponding solvent, internal standard concentration (200 ng/mL), were selected based on the properties of the test compound.
(§3) • Solution A: 0.1 mol/L K2HPO4 (2.28 g K2HPO4·3H2O was dissolved in 100 mL of double-distilled water); • Solution B: 0.1 mol/L KH2PO4 (1.36 g KH2PO4 was dissolved in 100 mL of double-distilled water); • 80.2 mL of Solution A and 19.8 mL of Solution B were mixed thoroughly, and the pH was adjusted to 7.4.
(§4) 37.5 mg of glycine was weighed, dissolved in 100 mL of ultrapure water, and adjusted to pH 8.0 with NaOH.
(§5) 1.25 mg of glucose-6-phosphate dehydrogenase (400 U/mg) was weighed (the specific amount weighed was calculated based on the activity of the purchased glucose-6-phosphate dehydrogenase), dissolved in 1 mL of glycine buffer to a concentration of 500 U/mL, aliquoted into 20 µL per tube, and stored at -20°C for future use.
(§6) 7.83 mg of NADP, 0.06 mL of D-glucose-6-phosphate (260 mg/mL), and 10.17 mg of MgCl2·6H2O were precisely weighed.
(§7) The mixture was dissolved in 1 mL of pure water. The cofactor ratio composition: NADP 10 mM, D-glucose-6-phosphate 60 mM, MgCl2·6H2O 50 mM.
(§8) The reaction system (taking a 500 µL system as an example) was composed of the following solution ratios: 416.5 µL phosphate buffer, 5 µL compound working solution, 25 µL liver microsomes, 3.5 µL glucose-6-phosphate dehydrogenase, and 50 µL cofactor solution. The total incubation volume could be adjusted according to experimental requirements.
(§9) 416.5 µL of phosphate buffer was taken, 25 µL of liver microsomes, 3.5 µL of glucose-6-phosphate dehydrogenase, and 50 µL of cofactor solution were added, vortexed twice to mix, and preincubated in a 37°C water bath for 5 minutes. Then, 5 µL of the test compound working solution was added, vortexed twice to mix, each time for 2-3 seconds, and placed in a 37°C water bath to initiate the reaction, with two parallel samples set. At 0.5 min, 1 min, 2 min, 5 min, 15 min, and 30 min after the reaction, 50 µL of the mixture was taken and added to centrifuge tubes containing 200 µL of 0°C pre-cooled internal standard working solution to terminate the reaction, vortexed for 1 minute to mix, and centrifuged at 13,000 rpm for 10 minutes in a 4°C pre-cooled high-speed centrifuge. The supernatant was collected for analysis. After the compound was added and vortex-mixed, 50 µL of the mixture was rapidly transferred to a centrifuge tube containing 200 µL of a pre-cooled (0°C) internal standard working solution to terminate the reaction, vortex-mixed for 1 minute, and used as the relative zero-point sample (relative to the standard group). The sample was then placed into a 37°C water bath to initiate the reaction, and timing was started.
(§10) The sample analysis of the test compound was performed using the liquid chromatography-tandem mass spectrometry (LCMS/MS) method. The semi-quantitative determination was performed using the ratio of the analyte peak area to the internal standard peak area. The retention times of the analyte and internal standard, chromatogram acquisition, and chromatogram integration were processed using Analyst software.
(§11) The in vitro elimination rate constant k of the test compound and the control compound was determined by converting the ratio of the peak area of the test compound to the internal standard into the remaining rate, and T1/2 was then calculated according to the following formula. T1/2 = (Ln2)/(k) = (0.693)/(k) [formula] Table 3. […]

[2] = in vitro liver microsome metabolic stability, human; assay type: in vitro ADME; details: Human liver microsomes, 37°C
Procedure: as §1, §2, §3, §4, §5, §6, §7, §8, §9, §10, §11

[3] = in vitro liver microsome metabolic stability, beagle dog; assay type: in vitro ADME; details: Beagle dog liver microsomes, 37°C
Procedure: as §1, §2, §3, §4, §5, §6, §7, §8, §9, §10, §11

[4] = in vivo pharmacokinetic study in SD rats; details: male, rat, plasma; for AUC(0-t) / Cmax / half-life: 1 mg/kg
Procedure: 2.2.1 Rats: SD rats, SPF grade, 6 rats per compound, male, body weight range 180-200 g.
2.2.2 Housing conditions: The animals were housed in an SPF-grade animal facility with free access to food and water, three per cage, under a 12/12-hour light/dark cycle (7:00 am/7:00 pm), at a temperature of 23 ± 3°C.
2.2.3 Drug preparation: The compound was precisely weighed, mixed with the required volume of 1% Tween 80, vortexed for 2 min, and then sonicated for 5 min until no visible particles remained. The mixture was subsequently stirred on a magnetic stirrer for 20 min, and the middle layer of the drug solution was collected for administration. For the IV group, the compound was accurately weighed, dissolved in the required volume of 50% PEG400, sonicated for 10 min, and vortexed until clear before administration.
The rats were randomly divided into 2 groups based on body weight, with 3 rats per compound per group. Group 1 was administered a single oral gavage dose (fasted), and Group 2 was administered a single tail vein bolus injection. Blood collection time points: for the po group, blood was collected at 0.167 h, 0.5 h, 1 h, 2 h, 3 h, 4 h, 6 h, and 8 h; for the iv group, blood was collected at 0.033 h, 0.167 h, 0.5 h, 1 h, 2 h, 4 h, 6 h, and 8 h.
After administration to the rats, blood was collected from the orbital venous plexus according to the sampling time points. Approximately 0.2-0.3 mL of blood was collected at each time point into anticoagulant EP tubes (containing 4 µL of EDTA-K2, 375 mg/mL, dried at 50°C). The tubes were slowly inverted up and down three times and stored in an ice box (for no more than 30 minutes). Centrifugation was performed at 4°C at 3000 × g for 10 minutes, and the supernatant was transferred to labeled EP tubes for bioanalytical testing. If testing could not be performed on the same day, the samples were stored at -80°C until analysis (care was taken to avoid multiple freeze/thaw cycles).
The data were analyzed using WinNonlin via a non-compartmental model to obtain PK parameters (Cmax, AUC0-last, AUCinf, T1/2, etc., selected based on different routes of administration). For specific data, please refer to Table 2. Table 2. PK experimental results of compounds in SD rats

Row | Liver microsome T1-2 (min) Rat [1] [min] | Liver microsome T1-2 (min) Human [2] [min] | Liver microsome T1-2 (min) Beagle dog [3] [min] | SMILES | further results
1 | 571.31 | 369.68 | 567.51 | Cc1cccnc1C(Nc1c(Nc2ccc(F)c(C(=O)N(C)C)c2O)c(=O)c1=O)[C@@]1(C)CC(F)(F)CO1 (stereo partly drawn) [087B, 3-((2-((((R)-4,4-difluoro-2-methyltetrahydrofuran-2-yl)(3-methylpyridin-2-yl)methyl)amino)-3,4-dioxocyclobut-1-en-1-yl)amino)-6-fluoro-2-hydroxy-N,N-dimethylbenzamide] | –
2 | 78.14 | 310.89 | 160.31 | Cc1cccnc1[C@H](Nc1c(Nc2ccnc(C(=O)N(C)C)c2O)c(=O)c1=O)[C@@]1(C)CC(F)(F)CO1 (single isomer, unassigned) [128A] | –

The next lines start with the compound.

Row | SMILES | Liver microsome T1-2 (min) Rat [1] [min] | Liver microsome T1-2 (min) Human [2] [min] | Liver microsome T1-2 (min) Beagle dog [3] [min] | further results
3 | CC#CC(Nc1c(Nc2ccnc(C(=O)N(C)C)c2O)c(=O)c1=O)C1(C)CC(F)(F)CO1 (centres unmarked) [compound 112, 4-((2-((1-(4,4-difluoro-2-methyltetrahydrofuran-2-yl)but-2-yn-1-yl)amino)-3,4-dioxocyclobut-1-en-1-yl)amino)-3-hydroxy-N,N-dimethylpicolinamide] | 560.45 | – | – | IC50 (human CCR6): 165 nM
4 | Cc1cccnc1[C@H](Nc1c(Nc2ccc(Cl)c(C(=O)N(C)C)c2O)c(=O)c1=O)C1(C)CC(F)(F)C1 [compound 088, (R)-6-chloro-3-((2-(((3,3-difluoro-1-methylcyclobutyl)(3-methylpyridin-2-yl)methyl)amino)-3,4-dioxocyclobut-l-en-1-yl)amino)-2-hydroxy-N,N-dimethylbenzamide] | 39.67 | 423.69 | 753.15 | –
5 | CN(CC(F)F)C(=O)c1nccc(Nc2c(N[C@@H](c3ccc(F)cn3)C3(C)CCCC3)c(=O)c2=O)c1O [compound 071, (R)-N-(2,2-difluoroethyl)-4-((2-(((5-fluoropyridin-2-yl)(1-methylcyclopentyl)methyl)amino)-3,4-dioxocyclobut-1-en-1-yl)amino)-3-hydroxy-N-methylpicolinamide] | 52.81 | 262.47 | 54.52 | –
6 | Cc1cccnc1[C@H](Nc1c(Nc2ccc(Cl)c(C(=O)N(C)C)c2O)c(=O)c1=O)C1(C)CC(F)CO1 (stereo partly drawn) [compound 081, 6-chloro-3-((2-(((1S)-(4-fluoro-2-methyltetrahydrofuran-2-yl)(3-methylpyridin-2-yl)methyl)amino)-3,4-dioxocyclobut-l-en-1-yl)amino)-2-hydroxy-N,N-dimethylbenzamide] | 403.32 | 713.96 | 669.81 | –
7 | Cc1nccnc1[C@H](Nc1c(Nc2ccnc(C(=O)N(C)C)c2O)c(=O)c1=O)C1(C)CCCC1 [compound 091, (R)-3-hydroxy-N,N-dimethyl-4-((2-(((1-methylcyclopentyl)(3-methylpyrazin-2-yl)methyl)amino)-3,4-dioxocyclobut-1-en-1-yl)amino)picolinamide] | 72.62 | 717.09 | 338.24 | –
8 | Cc1nccnc1[C@H](Nc1c(Nc2ccc(F)c(C(=O)N(C)C)c2O)c(=O)c1=O)C1(C)CCCC1 [compound 130, (R)-6-fluoro-2-hydroxy-N,N-dimethyl-3-((2-(((1-methylcyclopentyl)(3-methylpyrazin-2-yl)methyl)amino)-3,4-dioxocyclobut-1-en-1-yl)amino)benzamide] | 109.49 | – | 2270.89 | bioavailability ([4]; 1 mg/kg PO vs 1 mg/kg IV, read-out: Oral bioavailability F (%)): 24%; AUC(0-t) ([4]; IV): 752 ng·h/mL; Cmax ([4]; IV): 5530 ng/mL; half-life ([4]; IV): 0.22 h; AUC(0-t) ([4]; PO): 181 ng·h/mL; Cmax ([4]; PO): 158 ng/mL; half-life ([4]; PO): 2.79 h
